Assay results published in patent US20100036088A1, “Selective poly-N-substituted glycine antibiotics” (priority 2008, published 2010).
Converted amounts (≈) assume the structure as drawn. Like-named read-outs stand apart in the source and are kept apart here. Numbered stars: 1 amine (or outer) side, 2 acyl side, 3 side chain; on linkers, the order of the positions; unused ones are H or OH. Square brackets hold non-standard residues; d marks the D form. Peptide text beside a SMILES is read from it. X2 = CCC[C@H](C)N(CC(=O)[*:2])[*:1]; Nspe = C[C@H](NCC(=O)O)c1ccccc1; Nphe = O=C(O)CNCc1ccccc1; Nlys = NCCCCNCC(=O)O

Assays:
[1] = test system: human erythrocytes; assay: Hemolysis assay; type: cell-based
How it was run: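 Peptoid serial dilutions in PBS pH 7.4 were combined with an equal volume of 20 vol % washed human red cells (heparinised blood) for 1 h at 37 °C. After dilution and pelleting at 1200 g, released haemoglobin in supernatant was read at A350, scaled between PBS and 0.2 vol % Triton X-100 controls.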

[2] = test system: E. coli (ATCC 35218); type: cell-based; conditions: ATCC 35218
How it was run: (§1)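 MICs by broth microdilution per CLSI M7-A6 in cation-adjusted Mueller-Hinton broth, using 2:1 serial dilutions of peptoid and a bacterial inoculum of 1×10^6 CFU/mL. Values reproducible over three experiments, each with two parallel trials.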

[3] = test system: B. subtilis (ATCC 6633); type: cell-based; conditions: ATCC 6633
How it was run: as §1

[4] = MTS assay, metabolic inhibition; type: cell-based, mouse
How it was run: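 NIH/3T3 cells seeded at 5,000 per well, grown a day, then exposed to serially diluted peptoids in HBSS together with MTS reagent. Absorbance at 490 nm read after 3 hours at 37° C.; mean of six replicates.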

[5] = test system: Klebsiella pneumoniae ATCC 33495; type: cell-based; conditions: ATCC 33495
Description: (§2) Antibacterial assays. MICs were determined according to CLSI M7-A6 protocols in a 96-well microtiter plate. In test wells, 50 μL bacterial inoculum (5×10^5 CFU/ml) in Mueller-Hinton broth (MHB) was added to 50 μL peptoid solution in MHB (prepared by 1:2 serial dilutions). Positive controls contained 50 μL inoculum and 50 μL MHB without peptoid. […] MIC values reported were reproducible between three independent experimental replicates, each consisting of two parallel trials. Broad-spectrum antimicrobial susceptibility testing was performed against BSL2 pathogens by Nova Biologicals, Inc. (Conroe, Tex.).
(§3) Broad-spectrum antibacterial assays. MICs of compounds were determined by microdilution procedure in Mueller-Hinton broth (MHB) in accordance with CLSI M7-A6 protocols in a manner similar to that described for the screen antibacterial assays. Inoculated microtiter plates were incubated at 35° C. for 24 hours prior to the result being recorded. Four ATCC strains that were used as standards are recommended by CLSI: Pseudomonas aeruginosa ATCC 27853, Escherichia coli ATCC 25922, Staphylococcus aureus ATCC 29213 and Enterococcus faecalis ATCC 29212. Other strains from the ATCC collection include Proteus vulgaris ATCC 49132, Proteus mirabilis ATCC 35659, Klebsiella pneumoniae ATCC 33495, Enterobacter aerogenes ATCC 35029 and Serratia marcescens ATCC 13880. S. aureus NRS100 (COL) is a well characterized methicillian-resistant S. aureus (MRSA) strain. The strains S. aureus VAN1 and S. aureus VAN2, vancomycin-resistant MRSA strains that were isolated in Michigan and Pennsylvania, were the first vancomycin-resistant strains clinically isolated. S. aureus NRS119 and S. aureus NRS120 are linezolid-resistant isolates from the Network on Antimicrobial Resistance in S. aureus (NARSA) collection. E. faecalis 99 and E. faecium 106 are vancomycin-resistant enterococcal strains.

[6] = test system: Staphylococcus aureus ATCC 29213; type: cell-based; conditions: ATCC 29213
Description: as §2, §3

[7] = test system: Enterococcus faecalis 99; type: cell-based; conditions: 99
Description: as §2, §3

[8] = test system: Serratia marcescens ATCC 13880; type: cell-based; conditions: ATCC 13880
Description: as §2, §3

[9] = test system: Escherichia coli ATCC 25922; type: cell-based; conditions: ATCC 25922
Description: as §2, §3

[10] = test system: Pseudomonas aeruginosa ATCC 27853; type: cell-based; conditions: ATCC 27853
Description: as §2, §3

[11] = test system: Proteus vulgaris ATCC 49132; type: cell-based; conditions: ATCC 49132
Description: as §2, §3

[12] = test system: Enterococcus faecium 106; type: cell-based; conditions: 106
Description: as §2, §3

[13] = test system: Proteus mirabilis ATCC 35659; type: cell-based; conditions: ATCC 35659
Description: as §2, §3

[14] = test system: Enterococcus faecalis ATCC 29212; type: cell-based; conditions: ATCC 29212
Description: as §2, §3

[15] = test system: Staphylococcus aureus NRS120; type: cell-based; conditions: NRS120
Description: as §2, §3

[16] = test system: Staphylococcus aureus VAN2; type: cell-based; conditions: VAN2
Description: as §2, §3

[17] = test system: Staphylococcus aureus NRS100 (COL); type: cell-based; conditions: NRS100 (COL)
Description: as §2, §3

[18] = test system: Staphylococcus aureus VAN1; type: cell-based; conditions: VAN1
Description: as §2, §3

[19] = test system: Enterobacter aerogenes ATCC 35029; type: cell-based; conditions: ATCC 35029
Description: as §2, §3

[20] = test system: Staphylococcus aureus NRS119; type: cell-based; conditions: NRS119
Description: as §2, §3

[21] = RP-HPLC elution solvent composition as measure of molecular hydrophobicity; type: physicochemical
Text: An initial set of 15 ampetoid analogs was synthesized to determine whether peptoids are affected by structural and sequence modifications in a manner consistent with AMP activities. The designs for ampetoids in this library were derived from two antibacterial and selective amphipathic dodecamers, 1 and 2. Peptoid 1 [H-(Nlys-Nspe-Nspe)4—NH2] is composed of 2/3 Nspe, the peptoid analog of phenylalanine, and 1/3 Nlys, the peptoid analog of lysine (see FIG. 1 for the structures of representative peptoid monomers and corresponding N-substituents). Peptoid 2 [H-(Nlys-Nssb-Nspe)4—NH2] contains 1/3 isoleucine-like Nssb monomers in place of Nspe. The variant sequences were designed to effect changes in chirality, length, hydrophobicity, charge, and amphipathicity. All of these compounds were tested for antibacterial activity against representative BSL1 Gram-negative (E. coli JM109) and Gram-positive (B. subtilis BR151) bacterial strains. As an initial measure of selectivity, the lytic activity of the peptoids was determined against human erythrocytes. Table 1 summarizes the sequences synthesized, the solvent composition at RP-HPLC elution as a relative measure of molecular hydrophobicity, and antibacterial and hemolytic activities.
Following synthesis, peptoid oligomers can be cleaved from the resin, simultaneously removing the tert-butoxycarbonyl (Boc) protecting group from Nlys residues, by treatment with 10 ml 2,2,2-trifluoroacetic acid (TFA)/triisopropylsilane/H2O (95:2.5:2.5 by volume) for 30 min. The cleavage mixture is then diluted with 25 ml 50% aqueous acetonitrile, frozen, and lyophilized. Dilution and lyophilization is repeated twice more in order to remove excess TFA. Subsequent to cleavage, peptoids are each purified to >97% homogeneity by preparative scale reversed-phase HPLC using a Waters Prep LC 4000 system, with Waters 2487 dual-wavelength UV detection, and gradient elution (solvent A, 0.1 vol % trifluoroacetic acid (TFA) in water; solvent B, 0.1 vol % TFA in acetonitrile) through a Vydac (Hysperia, Calif.) 214TP101550 C4 peptide/protein column (10-15 μm, 300 Å, 5×25 cm). Following prep HPLC, peptoid purities and crude yields were determined from analytical scale HPLC, performed with a Waters 2695 Separations Module with a Waters 2487 dual-wavelength UV detector and gradient elution (solvent A, 0.1 vol % TFA in water; solvent B, 0.1 vol % TFA in acetonitrile) through a Vydac C4 214TP53 peptide/protein column (5 μm, 300 Å, 3.2×250 mm). The precise gradient employed for HPLC depended on the identity and hydrophobicity of the oligomer in question. All analytical HPLC was performed at 0.5 ml/min flow and 58° C. Preparative HPLC was performed at 50 ml/min flow and room temperature.

Row | E. coli MIC [2] | B. subtilis MIC [3] | IC50 [4] | MIC Klebsiella pneumoniae ATCC 33495 [5] | MIC Staphylococcus aureus ATCC 29213 [6] | MIC Enterococcus faecalis 99 [7] | MIC S. marcescens ATCC 13880 [8] | MIC Serratia marcescens ATCC 13880 [8] | MIC Escherichia coli ATCC 25922 [9] | MIC Pseudomonas aeruginosa ATCC 27853 [10] | MIC Proteus vulgaris ATCC 49132 [11] | MIC Enterococcus faecium 106 [12] | MIC P. mirabilis ATCC 35659 [13] | MIC Proteus mirabilis ATCC 35659 [13] | MIC Enterococcus faecalis ATCC 29212 [14] | MIC Staphylococcus aureus NRS120 [15] | MIC Staphylococcus aureus VAN2 [16] | MIC Staphylococcus aureus NRS100 (COL) [17] | SMILES | HD10 [1] | HD50 [1] | also measured
1 | 6.3 µM | 1.6 µM | 6.8 µM | 9.1 µM (≈ 16 µg/mL) | 4.5 µM (≈ 7.93 µg/mL) | 36.3 µM (≈ 64 µg/mL) | >128 µg/mL | >72.6 µM | 4.5 µM (≈ 7.93 µg/mL) | 36.3 µM (≈ 64 µg/mL) | 36.3 µM (≈ 64 µg/mL) | 2.3 µM (≈ 4.06 µg/mL) | >128 µg/mL | >72.6 µM | 4.5 µM (≈ 7.93 µg/mL) | 9.1 µM (≈ 16 µg/mL) | 4.5 µM (≈ 7.93 µg/mL) | 4.5 µM (≈ 7.93 µg/mL) | C[C@@H](c1ccccc1)N(CC(N)=O)C(=O)CN(Cc1ccccc1)C(=O)CN(CCCCN)C(=O)CN(C(=O)CN(Cc1ccccc1)C(=O)CN(CCCCN)C(=O)CN(C(=O)CN(Cc1ccccc1)C(=O)CN(CCCCN)C(=O)CN(C(=O)CN(Cc1ccccc1)C(=O)CNCCCCN)[C@@H](C)c1ccccc1)[C@@H](C)c1ccccc1)[C@@H](C)c1ccccc1 [1-Npm2,5,8,11, H-(Nlys-Npm-Nspe)4-NH2] (H-[Nlys][Nphe][Nspe][Nlys][Nphe][Nspe][Nlys][Nphe][Nspe][Nlys][Nphe][Nspe]-NH2) | 87 µM | > 200 µM | MIC Staphylococcus aureus VAN1 [18]: 4.5 µM (≈ 7.93 µg/mL); MIC Enterobacter aerogenes ATCC 35029 [19]: 36.3 µM (≈ 64 µg/mL); MIC Staphylococcus aureus NRS119 [20]: 9.1 µM (≈ 16 µg/mL)
2 | 50 µM | – | 64 µM | – | – | – | – | – | – | – | – | – | – | – | – | – | – | – | CC(C)[C@H](C)N(CC(N)=O)C(=O)CN(C(=O)CN(CCCCN)C(=O)CN(C(=O)CN(C(=O)CN(CCCCN)C(=O)CN(C(=O)CN(C(=O)CN(CCCCN)C(=O)CN(C(=O)CN(C(=O)CNCCCCN)[C@@H](C)C(C)C)[C@@H](C)C(C)C)[C@@H](C)C(C)C)[C@@H](C)C(C)C)[C@@H](C)C(C)C)[C@@H](C)C(C)C)[C@@H](C)C(C)C [1-Nsdpall, H-(Nlys-Nsdp-Nsdp)4-NH2] | >200/>200 μM | >200/>200 μM | HPLC elution (% ACN) ([21]; Table 5, average of three injections, linear 5%-95% acetonitrile/water (0.1% TFA) over 45 minutes, C18 column, measure of hydrophobicity): 63.2 % ACN; E. coli MIC ([2]; Table 6): 25 µM; B. subtilis MIC ([3]; Table 6): 0.78 µM
3 | 12.5 µM | 1.6 µM | 24 µM | 9.1 µM (≈ 16 µg/mL) | 9.1 µM (≈ 16 µg/mL) | 36.5 µM (≈ 64.1 µg/mL) | >128 µg/mL | >72.9 µM | 4.6 µM (≈ 8.07 µg/mL) | 18.2 µM (≈ 31.9 µg/mL) | 36.5 µM (≈ 64.1 µg/mL) | 2.3 µM (≈ 4.04 µg/mL) | >128 µg/mL | >72.9 µM | 4.6 µM (≈ 8.07 µg/mL) | 9.1 µM (≈ 16 µg/mL) | 4.6 µM (≈ 8.07 µg/mL) | 4.6 µM (≈ 8.07 µg/mL) | C[C@@H](c1ccccc1)N(CC(N)=O)C(=O)CN(C(=O)CN(CCCCN)C(=O)[C@@H]1CCCN1C(=O)CN(C(=O)CN(CCCCN)C(=O)CN(C(=O)CN(C(=O)CN(CCCCN)C(=O)CN(C(=O)CN(C(=O)CNCCCCN)[C@@H](C)c1ccccc1)[C@@H](C)c1ccccc1)[C@@H](C)c1ccccc1)[C@@H](C)c1ccccc1)[C@@H](C)c1ccccc1)[C@@H](C)c1ccccc1 [1-Pro9, H-(Nlys-Nspe2)2-Nlys-Nspe-L-Pro-(Nlys-Nspe2)-NH2] (H-[Nlys][Nspe][Nspe][Nlys][Nspe][Nspe][Nlys][Nspe]P[Nlys][Nspe][Nspe]-NH2) | 165 µM | > 200 µM | MIC Staphylococcus aureus VAN1 [18]: 4.6 µM (≈ 8.07 µg/mL); MIC Enterobacter aerogenes ATCC 35029 [19]: 36.5 µM (≈ 64.1 µg/mL); MIC Staphylococcus aureus NRS119 [20]: 9.1 µM (≈ 16 µg/mL)
4 | – | – | – | – | – | – | – | – | – | – | – | – | – | – | – | – | – | – | CCC[C@H](C)N(CC(=O)N(CC(N)=O)[C@@H](C)c1ccccc1)C(=O)CN(CCCCN)C(=O)CN(C(=O)CN(C(=O)CN(CCCCN)C(=O)CN(C(=O)CN(C(=O)CN(CCCCN)C(=O)CN(C(=O)CN(C(=O)CNCCCCN)[C@@H](C)CCC)[C@@H](C)c1ccccc1)[C@@H](C)CCC)[C@@H](C)c1ccccc1)[C@@H](C)CCC)[C@@H](C)c1ccccc1 [2-Nsap2,5,8,11] (H-[Nlys][X2][Nspe][Nlys][X2][Nspe][Nlys][X2][Nspe][Nlys][X2][Nspe]-NH2) | – | – | HD10 (10% hemolytic dose) ([1]; red cells of human, 1 h): >120/>120 μM; HD50 (50% hemolytic dose) ([1]; red cells of human, 1 h): >120/>120 μM; HPLC elution solvent ([21]; Table 1, percent acetonitrile in water, 0.1% (v/v) TFA at HPLC elution): 48%
